Active and inactive are the calls of the source. How the calls were made is not given here.

In the data set the test system is CCRIS mutagenicity, Ames/micronucleus/aberration tests. Description: CCRIS mutagenicity studies.
[1] abbreviates: Test System: AMES SALMONELLA TYPHIMURIUM, Strain/Indicator: TA98, Metabolic Activation: NONE, Method: PREINCUBATION
The mark [2] stands for this setting: Test System: AMES SALMONELLA TYPHIMURIUM, Strain/Indicator: TA100, Metabolic Activation: NONE, Method: PREINCUBATION
Where [3] appears, read: Test System: AMES SALMONELLA TYPHIMURIUM, Strain/Indicator: TA1535, Metabolic Activation: NONE, Method: PREINCUBATION
[4] abbreviates: Test System: AMES SALMONELLA TYPHIMURIUM, Strain/Indicator: TA98, Metabolic Activation: NONE, Method: STANDARD PLATE.
The mark [5] stands for this setting: Test System: AMES SALMONELLA TYPHIMURIUM, Strain/Indicator: TA100, Metabolic Activation: NONE, Method: STANDARD PLATE.

For the compound `Cc1cccc(C#N)c1`, the mutagenic call runs as follows: (Test System: AMES SALMONELLA TYPHIMURIUM, Strain/Indicator: TA97, Metabolic Activation: HAMSTER, LIVER, S-9, AROCLOR 1254 (10%), Method: PREINCUBATION) “inactive; negative”; (Test System: AMES SALMONELLA TYPHIMURIUM, Strain/Indicator: TA97, Metabolic Activation: HAMSTER, LIVER, S-9, AROCLOR 1254 (30%), Method: PREINCUBATION) “inactive; negative”; (Test System: AMES SALMONELLA TYPHIMURIUM, Strain/Indicator: TA97, Metabolic Activation: NONE, Method: PREINCUBATION) “inactive; negative”; (Test System: AMES SALMONELLA TYPHIMURIUM, Strain/Indicator: TA97, Metabolic Activation: RAT, LIVER, S-9, AROCLOR 1254 (10%), Method: PREINCUBATION) “inactive; negative”; (Test System: AMES SALMONELLA TYPHIMURIUM, Strain/Indicator: TA97, Metabolic Activation: RAT, LIVER, S-9, AROCLOR 1254 (30%), Method: PREINCUBATION) “inactive; negative”; (Test System: AMES SALMONELLA TYPHIMURIUM, Strain/Indicator: TA98, Metabolic Activation: HAMSTER, LIVER, S-9, AROCLOR 1254 (10%), Method: PREINCUBATION) “inactive; negative”. The mutagenic call reads like this: (Test System: AMES SALMONELLA TYPHIMURIUM, Strain/Indicator: TA98, Metabolic Activation: HAMSTER, LIVER, S-9, AROCLOR 1254 (30%), Method: PREINCUBATION) “inactive; negative”; under setting [1], “inactive; negative”; (Test System: AMES SALMONELLA TYPHIMURIUM, Strain/Indicator: TA98, Metabolic Activation: RAT, LIVER, S-9, AROCLOR 1254 (10%), Method: PREINCUBATION) “inactive; negative”; (Test System: AMES SALMONELLA TYPHIMURIUM, Strain/Indicator: TA98, Metabolic Activation: RAT, LIVER, S-9, AROCLOR 1254 (30%), Method: PREINCUBATION) “inactive; negative”; (Test System: AMES SALMONELLA TYPHIMURIUM, Strain/Indicator: TA100, Metabolic Activation: HAMSTER, LIVER, S-9, AROCLOR 1254 (10%), Method: PREINCUBATION) “inactive; negative”; (Test System: AMES SALMONELLA TYPHIMURIUM, Strain/Indicator: TA100, Metabolic Activation: HAMSTER, LIVER, S-9, AROCLOR 1254 (30%), Method: PREINCUBATION) “inactive; negative”. Moreover, the mutagenic call runs as follows: under setting [2], “inactive; negative”; (Test System: AMES SALMONELLA TYPHIMURIUM, Strain/Indicator: TA100, Metabolic Activation: RAT, LIVER, S-9, AROCLOR 1254 (10%), Method: PREINCUBATION) “inactive; negative”; (Test System: AMES SALMONELLA TYPHIMURIUM, Strain/Indicator: TA100, Metabolic Activation: RAT, LIVER, S-9, AROCLOR 1254 (30%), Method: PREINCUBATION) “inactive; negative”; (Test System: AMES SALMONELLA TYPHIMURIUM, Strain/Indicator: TA1535, Metabolic Activation: HAMSTER, LIVER, S-9, AROCLOR 1254 (10%), Method: PREINCUBATION) “inactive; negative”; (Test System: AMES SALMONELLA TYPHIMURIUM, Strain/Indicator: TA1535, Metabolic Activation: HAMSTER, LIVER, S-9, AROCLOR 1254 (30%), Method: PREINCUBATION) “inactive; negative”; under setting [3], “inactive; negative”. Also, the mutagenic call reads like this: (Test System: AMES SALMONELLA TYPHIMURIUM, Strain/Indicator: TA1535, Metabolic Activation: RAT, LIVER, S-9, AROCLOR 1254 (10%), Method: PREINCUBATION) “inactive; negative”; (Test System: AMES SALMONELLA TYPHIMURIUM, Strain/Indicator: TA1535, Metabolic Activation: RAT, LIVER, S-9, AROCLOR 1254 (30%), Method: PREINCUBATION) “inactive; negative”.
`COc1cccc2c1CC([N+](=O)[O-])c1ccc3c(c1-2)OCO3` (stereo not drawn): the mutagenic call is “inactive; negative” (Test System: AMES SALMONELLA TYPHIMURIUM, Strain/Indicator: D3052, Metabolic Activation: NONE, Method: STANDARD PLATE); “inactive; negative” (Test System: AMES SALMONELLA TYPHIMURIUM, Strain/Indicator: D3052, Metabolic Activation: RAT, LIVER, S-9, PHENOBARBITAL, Method: STANDARD PLATE); “inactive; negative” (Test System: AMES SALMONELLA TYPHIMURIUM, Strain/Indicator: G46, Metabolic Activation: NONE, Method: STANDARD PLATE); “inactive; negative” (Test System: AMES SALMONELLA TYPHIMURIUM, Strain/Indicator: G46, Metabolic Activation: RAT, LIVER, S-9, PHENOBARBITAL, Method: STANDARD PLATE); “active; positive” under setting [4]; “active; positive” (Test System: AMES SALMONELLA TYPHIMURIUM, Strain/Indicator: TA98, Metabolic Activation: RAT, LIVER, S-9, PHENOBARBITAL, Method: STANDARD PLATE). Moreover, the mutagenic call under setting [5] was “active; positive”; the mutagenic call (Test System: AMES SALMONELLA TYPHIMURIUM, Strain/Indicator: TA100, Metabolic Activation: RAT, LIVER, S-9, PHENOBARBITAL, Method: STANDARD PLATE) is “active; positive”; the mutagenic call (Test System: AMES SALMONELLA TYPHIMURIUM, Strain/Indicator: TA1535, Metabolic Activation: NONE, Method: STANDARD PLATE) was “active; positive”; the mutagenic call (Test System: AMES SALMONELLA TYPHIMURIUM, Strain/Indicator: TA1535, Metabolic Activation: RAT, LIVER, S-9, PHENOBARBITAL, Method: STANDARD PLATE) is “active; positive”; the mutagenic call (Test System: AMES SALMONELLA TYPHIMURIUM, Strain/Indicator: TA1978, Metabolic Activation: NONE, Method: STANDARD PLATE) was “inactive; negative”; the mutagenic call (Test System: AMES SALMONELLA TYPHIMURIUM, Strain/Indicator: TA1978, Metabolic Activation: RAT, LIVER, S-9, PHENOBARBITAL, Method: STANDARD PLATE) is “inactive; negative”.
As to `Cc1c(F)c(N2CCNC(C)C2)cc2c1c(=O)c(C(=O)O)cn2C1CC1` (stereo not drawn), the mutagenic call reads like this: under setting [1], “inactive; negative”; (Test System: AMES SALMONELLA TYPHIMURIUM, Strain/Indicator: TA98, Metabolic Activation: RAT, LIVER, S-9, PHENOBARBITAL AND 5,6-BENZOFLAVONE, Method: PREINCUBATION) “inactive; negative”; under setting [2], “inactive; negative”; (Test System: AMES SALMONELLA TYPHIMURIUM, Strain/Indicator: TA100, Metabolic Activation: RAT, LIVER, S-9, PHENOBARBITAL AND 5,6-BENZOFLAVONE, Method: PREINCUBATION) “inactive; negative”; under setting [3], “inactive; negative”; (Test System: AMES SALMONELLA TYPHIMURIUM, Strain/Indicator: TA1535, Metabolic Activation: RAT, LIVER, S-9, PHENOBARBITAL AND 5,6-BENZOFLAVONE, Method: PREINCUBATION) “inactive; negative”. For the same compound, the mutagenic call by setting is: (Test System: AMES SALMONELLA TYPHIMURIUM, Strain/Indicator: TA1537, Metabolic Activation: NONE, Method: PREINCUBATION) “inactive; negative”; (Test System: AMES SALMONELLA TYPHIMURIUM, Strain/Indicator: TA1537, Metabolic Activation: RAT, LIVER, S-9, PHENOBARBITAL AND 5,6-BENZOFLAVONE, Method: PREINCUBATION) “inactive; negative”; (Test System: CHINESE HAMSTER V-79, Strain/Indicator: V-79 (HGPRT)/6-THIOGUANINE, Metabolic Activation: NONE) “inactive; negative”; (Test System: CHINESE HAMSTER V-79, Strain/Indicator: V-79 (HGPRT)/6-THIOGUANINE, Metabolic Activation: RAT, LIVER, S-9, PHENOBARBITAL AND 5,6-BENZOFLAVONE) “inactive; negative”; (Test System: E. COLI, Strain/Indicator: WP2 UVRA, Metabolic Activation: NONE, Method: PREINCUBATION) “inactive; negative”; (Test System: E. COLI, Strain/Indicator: WP2 UVRA, Metabolic Activation: RAT, LIVER, S-9, PHENOBARBITAL AND 5,6-BENZOFLAVONE, Method: PREINCUBATION) “inactive; negative”.
As to `Cc1cc(C)c2ccc3ccccc3c2c1`, the mutagenic call runs as follows: under setting [4], “inactive; negative”; (Test System: AMES SALMONELLA TYPHIMURIUM, Strain/Indicator: TA98, Metabolic Activation: RAT, LIVER, S-9, AROCLOR 1254, Method: STANDARD PLATE) “active; positive”; under setting [5], “inactive; negative”; (Test System: AMES SALMONELLA TYPHIMURIUM, Strain/Indicator: TA100, Metabolic Activation: RAT, LIVER, S-9, AROCLOR 1254, Method: STANDARD PLATE) “active; positive”.
